Assays:
[1] = system: KB cells; settings: by inhibition of DNA polymerase; cited from earlier work
[2] = system: NCI-H23 cells; assay: Antitumor activity on nude mice transplanted with NCI-H23 cells; type: in vivo, mouse; settings: for Inhibition rate of tumor growth (%) on NCI-H23: 16th day after tumor cells transplantation
Protocol: Female nude mice of the age of 5 weeks weighing 16˜25 g obtained from Harlan Co. (USA) were used as experimental animals in this experiment. The mice were used after acclimation for 1 week in an aseptic animal room. The animal room maintained the temperature of 22±2° C., the humidity of 55±5%, and the light and darkness cycle of 12 hours, which was automatically controlled. Solid feed for experimental animals was radiosterilized, and drinking water was sterilized in an autoclave. The animals were supplied with feed and drinking water ad libitum. A human tumor cell line provided by National Cancer Institute (NCI), USA, and preserved in the Korean Research Institute of Bioscience and Biotechnology (KRIBB), Korea, was used. Lung tumor cells, NCI-H23 cells, among the human tumor cells, were transplanted to the nude mice. The tumor cells of 3×10^7 cells/ml were subcutaneously transplanted to the mice at a volume of 0.3 ml/20 g body weight. The samples were intraperitoneally injected to the mice every day for 13 days, that is, from 1 day to 14th day except 8th day after tumor cells transplantation. The size of tumor formed during the injection was measured in each animal, and any change in its body weight was also measured. On 16th day after tumor cells transplantation, the nude mice were sacrificed, and the tumor was separated and weighed. To the positive control group was intraperitoneally injected adiamycin of 0.5 mg/kg body weight on 1st, 5th, 9th, and 14th day.

[3] = system: LLC cells; assay: Antitumor activity on BDF1 mice transplanted with LLC cells; type: in vivo, mouse; settings: for Inhibition rate of tumor growth (%): i.p., WT 280, SPX1 70, SPX2 171, SPX3 30.5, SPX4 8.1, SB365 6.4, adriamycin 0.5 mg/kg
Protocol: The mouse species used in this experiment was BDF1, and healthy male mice with the body weight of […] were used. These animals were supplied with water and foods ad libitum at a place of controlled temperature in the range of 2324° C., and were bred with an antibiotic-free mouse feed. LLC cells were subcutaneously cultured in C57BL/6 mice for 14 days. A LLC cell-containing tissue was taken and thereto was added sterilized cold physiological saline water (5 ml/g tissue) to prepare a cell suspension. The cell suspension of 0.2 ml was subcutaneously transplanted to the groin region of BDF1 mouse.
From 24 hours after transplantation, the above mice were divided into several groupsconsisting of 5 mice. Then, samples, fractions WT and SPX fractions, and SB365, were dissolved in physiological saline, and were injected intraperitoneally at each concentration of 280 mg/kg (WT), 70 mg/kg SPX1), 171 mg/kg (SPX2), 30.5 mg/kg (SPX3), 8.1 mg/kg (SPX4), and 6.4 mg/kg (SB365). To the negative control group was injected only the physiological saline, and to the positive control group was injected adriamycin (0.5 mg/kg). The injection was scheduled from 24 hours after tumor transplantation to administer the samples successively once a day for 7 days, and stopped for one day, and then, was carried out for 6 more consecutive days.
In order to evaluate toxicity of SB365 on mice, experimental mice were weighed twice a week. Antitumor activity was calculated after measuring tumor volume of the control and test groups on 14th and 15th day after sample administration as follows: • Tumor volume (mm^3)=length (mm)×width^2 (mm^2)/2 • Inhibition rate of tumor growth (%)=(C−T)×100/C • (C: average tumor volume in the control group, T: average tumor volume in the test group)

[4] = 14th day after transplantation of tumor cells
[5] = 15th day after transplantation of tumor cells

SMILES	Cytotoxicity (in words) [1]	Inhibition rate of tumor growth (%) on NCI-H23 ([2]; 0.5 mg/kg i.p. on 1st, 5th, 9th, 14th day) [%]	Inhibition rate of tumor growth (%) [3, 4] [%]	Inhibition rate of tumor growth (%) [3, 5] [%]	Inhibition rate of tumor growth (%) on NCI-H23 ([2]; 1.6 mg/kg i.p.) [%]	Inhibition rate of tumor growth (%) on NCI-H23 ([2]; 3.2 mg/kg i.p.) [%]	Inhibition rate of tumor growth (%) on NCI-H23 ([2]; 6.4 mg/kg i.p.) [%]	Antitumor activity (in words) ([2]; nude mice transplanted with NCI-H23 cells)	Antitumor activity (in words) ([3]; BDF1 mice transplanted with LLC cells)	Inhibition rate of tumor growth ([3]; day not stated) [%]
O=C1C=C[C@@H](COC2OC(CO)C(O)C(O)C2O)O1 (stereo partly drawn) [ranunculin, Ranunculin]	has cytotoxicity	–	–	–	–	–	–	–	–	–
COc1cccc2c1C(=O)c1c(O)c3c(c(O)c1C2=O)C[C@@](O)(C(=O)CO)C[C@@H]3O[C@H]1C[C@H](N)[C@H](O)[C@H](C)O1 [Adriamycin, reference compound]	–	61.5	60	64	–	–	–	–	–	–
CC1OC(OC2C(O[C@H]3CC[C@@]4(C)C(CC[C@]5(C)C4CC=C4C6CC(C)(C)CC[C@]6(C(=O)O)CC[C@]45C)[C@]3(C)CO)OCC(OC3OC(CO)C(O)C(O)C3O)C2O)C(O)C(O)C1O (stereo partly drawn) [SB365, hederagenin 3-O-α-L-rhamnopyranosyl(1→2)-[β-D-glucopyranosyl(1→4)]-α-L-arabinopyranoside]	–	–	82	79	40.1	52.3	82.1	higher antitumor activity	higher antitumor activity	81

— patent US20050239718A1, “Use of hederagenin 3-O-alpha-L-rhamnopyranosyl((1-2)-[betha-D-glucopyranosyl(1-4)]-alpha-L-arabinopyranoside or an extract from pulsatillae radix containing the same as a therapeutic agent for solid tumors” (priority 2002, published 2005)
